Consider five compounds from publication PMC4858680, “A platinum-based hybrid drug design approach to circumvent acquired resistance to molecular targeted tyrosine kinase inhibitors” (Scientific Reports, 2016).

For one assay, the target named is SRC (Homo sapiens, UniProt P12931). Nature of the assay: biochemical. The settings on record: read-out: Percent control.
Another assay has as its system K562 Ima1.0. Description: Anticancer activity in imatinib-selected resistant K562 subline. Type of assay: cell-based. The settings on record: read-out: Anticancer activity (IC50) K562 Imatinib selected (K562 Ima1.0); Bcr-Abl amplification.
Another assay has as its target EGFR(T790M) (Homo sapiens, UniProt P00533, T790M). Particulars: 10 μM.
The target of the next assay is ALK (Homo sapiens, UniProt Q9UM73). Nature of the assay: biochemical. Particulars: read-out: Percent control.
Sequence of ALK (Q9UM73 19-1620): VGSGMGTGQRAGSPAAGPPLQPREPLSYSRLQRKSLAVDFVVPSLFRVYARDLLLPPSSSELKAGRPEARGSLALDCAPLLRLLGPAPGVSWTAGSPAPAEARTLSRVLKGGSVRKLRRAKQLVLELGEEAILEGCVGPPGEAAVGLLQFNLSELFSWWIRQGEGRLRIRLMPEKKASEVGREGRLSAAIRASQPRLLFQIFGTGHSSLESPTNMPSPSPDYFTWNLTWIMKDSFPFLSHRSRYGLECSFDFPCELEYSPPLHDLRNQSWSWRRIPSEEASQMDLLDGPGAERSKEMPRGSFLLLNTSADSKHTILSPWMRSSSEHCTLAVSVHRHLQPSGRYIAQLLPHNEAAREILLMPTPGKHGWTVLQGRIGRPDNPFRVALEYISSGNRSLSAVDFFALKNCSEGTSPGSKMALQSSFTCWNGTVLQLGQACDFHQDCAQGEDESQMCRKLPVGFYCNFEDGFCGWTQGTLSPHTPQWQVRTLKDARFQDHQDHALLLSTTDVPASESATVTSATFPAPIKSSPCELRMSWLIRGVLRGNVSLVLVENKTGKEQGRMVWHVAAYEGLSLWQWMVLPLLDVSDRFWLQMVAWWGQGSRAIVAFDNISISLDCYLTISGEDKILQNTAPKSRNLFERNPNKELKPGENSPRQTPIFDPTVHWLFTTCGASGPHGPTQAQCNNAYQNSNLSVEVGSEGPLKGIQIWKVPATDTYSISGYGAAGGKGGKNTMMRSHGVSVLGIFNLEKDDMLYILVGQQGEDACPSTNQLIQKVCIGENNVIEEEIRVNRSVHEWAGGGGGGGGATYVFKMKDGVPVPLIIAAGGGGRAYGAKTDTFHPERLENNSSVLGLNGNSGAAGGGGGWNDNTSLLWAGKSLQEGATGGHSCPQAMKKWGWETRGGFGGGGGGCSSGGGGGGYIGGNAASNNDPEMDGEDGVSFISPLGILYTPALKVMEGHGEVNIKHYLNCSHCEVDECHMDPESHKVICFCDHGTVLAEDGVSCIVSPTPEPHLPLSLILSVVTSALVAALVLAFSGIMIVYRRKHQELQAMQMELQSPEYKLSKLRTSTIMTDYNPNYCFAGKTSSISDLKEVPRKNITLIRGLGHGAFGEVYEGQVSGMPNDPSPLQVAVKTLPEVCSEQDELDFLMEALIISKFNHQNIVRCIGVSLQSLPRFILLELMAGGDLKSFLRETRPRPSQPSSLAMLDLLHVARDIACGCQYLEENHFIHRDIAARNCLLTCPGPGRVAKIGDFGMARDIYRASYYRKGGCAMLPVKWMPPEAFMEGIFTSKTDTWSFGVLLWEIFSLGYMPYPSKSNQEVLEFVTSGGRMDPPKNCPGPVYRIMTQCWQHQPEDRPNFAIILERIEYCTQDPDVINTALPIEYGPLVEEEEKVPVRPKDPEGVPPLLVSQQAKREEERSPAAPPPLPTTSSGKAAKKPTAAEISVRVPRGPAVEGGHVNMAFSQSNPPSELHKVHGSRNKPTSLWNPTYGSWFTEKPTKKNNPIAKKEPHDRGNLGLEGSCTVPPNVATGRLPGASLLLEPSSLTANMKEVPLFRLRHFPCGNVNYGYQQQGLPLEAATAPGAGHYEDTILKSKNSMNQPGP
Another assay deals with T1, FLT3(K663D) (Homo sapiens, UniProt P36888, K663Q).
T1 sequence (P36888 564-993 K663Q limits assumed): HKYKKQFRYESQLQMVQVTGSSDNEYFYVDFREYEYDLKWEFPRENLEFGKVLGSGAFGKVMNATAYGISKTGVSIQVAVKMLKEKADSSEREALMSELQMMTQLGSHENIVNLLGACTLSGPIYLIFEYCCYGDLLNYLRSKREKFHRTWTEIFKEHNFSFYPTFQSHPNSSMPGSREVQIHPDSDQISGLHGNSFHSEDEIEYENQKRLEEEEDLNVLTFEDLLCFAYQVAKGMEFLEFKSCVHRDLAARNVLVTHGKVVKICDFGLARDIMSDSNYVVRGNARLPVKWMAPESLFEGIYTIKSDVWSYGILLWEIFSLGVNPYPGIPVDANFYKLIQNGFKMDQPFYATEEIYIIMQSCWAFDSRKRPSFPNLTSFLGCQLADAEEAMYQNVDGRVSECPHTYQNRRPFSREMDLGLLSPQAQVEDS
Nature of the assay: biochemical. Particulars: read-out: Percent control.

Assay [1] deals with ABL1(M351T)-phosphorylated (Homo sapiens, UniProt P00519, M351T). Description: biochemical. The settings on record: read-out: Percent control.
Assay [2] addresses ABL1(F317I)-phosphorylated (Homo sapiens, UniProt P00519, F317I). Nature of the assay: biochemical. Particulars: read-out: Percent control.
Assay [3] has as its target T2, ABL1(T315I)-nonphosphorylated (Homo sapiens, UniProt P00519, T315I). Description: biochemical. Particulars: read-out: Percent control.
Assay [4] has as its target ABL1(Q252H)-nonphosphorylated (Homo sapiens, UniProt P00519, Q252H). Nature of the assay: biochemical. Particulars: read-out: Percent control.
A further assay deals with T3, FLT3(R834Q) (Homo sapiens, UniProt P36888, R834Q).
T3 sequence (P36888 27-993 R834Q): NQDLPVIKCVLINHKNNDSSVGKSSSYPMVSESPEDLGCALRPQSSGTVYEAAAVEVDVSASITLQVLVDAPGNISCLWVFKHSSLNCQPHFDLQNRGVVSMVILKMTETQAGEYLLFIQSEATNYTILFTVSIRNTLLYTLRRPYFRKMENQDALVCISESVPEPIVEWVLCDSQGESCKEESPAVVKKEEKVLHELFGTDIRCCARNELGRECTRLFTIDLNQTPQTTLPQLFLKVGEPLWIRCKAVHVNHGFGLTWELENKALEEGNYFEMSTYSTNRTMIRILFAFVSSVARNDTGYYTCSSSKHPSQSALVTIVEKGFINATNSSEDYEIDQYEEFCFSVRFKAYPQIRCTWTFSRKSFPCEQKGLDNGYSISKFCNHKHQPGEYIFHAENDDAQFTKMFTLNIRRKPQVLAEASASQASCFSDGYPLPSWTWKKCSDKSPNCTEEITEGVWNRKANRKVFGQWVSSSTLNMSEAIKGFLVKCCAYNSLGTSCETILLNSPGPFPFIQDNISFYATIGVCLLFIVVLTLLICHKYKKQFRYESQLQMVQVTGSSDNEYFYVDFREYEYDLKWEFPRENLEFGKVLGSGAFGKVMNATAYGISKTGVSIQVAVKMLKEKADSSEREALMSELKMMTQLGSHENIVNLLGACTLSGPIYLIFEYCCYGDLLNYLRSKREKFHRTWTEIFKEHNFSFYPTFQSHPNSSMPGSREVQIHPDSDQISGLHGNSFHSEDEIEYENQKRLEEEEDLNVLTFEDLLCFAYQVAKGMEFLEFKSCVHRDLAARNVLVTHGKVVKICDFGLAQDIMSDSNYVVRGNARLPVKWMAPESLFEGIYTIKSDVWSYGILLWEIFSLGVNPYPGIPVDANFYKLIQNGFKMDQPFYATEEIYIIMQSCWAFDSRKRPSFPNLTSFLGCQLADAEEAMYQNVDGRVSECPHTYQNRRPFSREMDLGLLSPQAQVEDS
Nature of the assay: biochemical. Particulars: read-out: Percent control.

In assay [5] the target is ABL1(E255K)-phosphorylated (Homo sapiens, UniProt P00519, E255K). Description: biochemical. Particulars: read-out: Percent control.
The target in assay [6] is ABL1(H396P)-nonphosphorylated (Homo sapiens, UniProt P00519, H396P). The settings on record: 10 μM.
In assay [7] the target is T2, ABL1(T315I)-nonphosphorylated. Particulars: 10 μM.
For the next assay, the target named is EGFR(L858R) (Homo sapiens, UniProt P00533, L858R). Nature of the assay: biochemical. Particulars: read-out: Percent control.
Sequence of EGFR(L858R) (P00533 25-1210 L858R): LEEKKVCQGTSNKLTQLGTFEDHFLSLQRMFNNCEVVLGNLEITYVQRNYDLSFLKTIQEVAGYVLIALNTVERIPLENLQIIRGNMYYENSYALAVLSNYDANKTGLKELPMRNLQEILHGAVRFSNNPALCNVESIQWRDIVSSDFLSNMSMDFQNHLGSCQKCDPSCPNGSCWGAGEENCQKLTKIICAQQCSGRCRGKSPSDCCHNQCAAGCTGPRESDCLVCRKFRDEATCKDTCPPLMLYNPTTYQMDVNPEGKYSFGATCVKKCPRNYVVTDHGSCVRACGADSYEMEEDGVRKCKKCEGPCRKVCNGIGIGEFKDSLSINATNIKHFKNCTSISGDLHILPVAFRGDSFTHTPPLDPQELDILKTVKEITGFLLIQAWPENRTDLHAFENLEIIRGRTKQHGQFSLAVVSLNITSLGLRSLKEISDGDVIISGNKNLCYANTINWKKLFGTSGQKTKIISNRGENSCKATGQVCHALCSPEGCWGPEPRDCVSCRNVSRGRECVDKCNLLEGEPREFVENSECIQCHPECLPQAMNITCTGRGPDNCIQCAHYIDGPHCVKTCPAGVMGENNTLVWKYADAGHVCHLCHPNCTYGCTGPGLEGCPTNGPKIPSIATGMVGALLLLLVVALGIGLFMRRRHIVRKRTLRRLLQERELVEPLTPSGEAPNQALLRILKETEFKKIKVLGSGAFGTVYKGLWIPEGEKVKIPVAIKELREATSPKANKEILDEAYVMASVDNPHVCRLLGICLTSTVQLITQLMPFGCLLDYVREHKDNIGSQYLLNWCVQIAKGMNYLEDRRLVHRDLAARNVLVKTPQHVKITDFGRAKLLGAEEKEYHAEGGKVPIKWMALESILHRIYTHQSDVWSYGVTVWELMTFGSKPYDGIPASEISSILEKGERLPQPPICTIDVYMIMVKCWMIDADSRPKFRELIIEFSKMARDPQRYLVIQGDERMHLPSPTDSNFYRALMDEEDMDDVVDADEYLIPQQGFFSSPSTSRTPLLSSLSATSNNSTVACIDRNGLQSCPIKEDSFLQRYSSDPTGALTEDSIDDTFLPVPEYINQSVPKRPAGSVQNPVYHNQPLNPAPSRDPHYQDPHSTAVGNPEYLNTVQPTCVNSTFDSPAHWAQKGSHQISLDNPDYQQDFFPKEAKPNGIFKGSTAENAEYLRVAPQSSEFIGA

The IC50 is the point on the concentration scale where inhibition reaches its midpoint.

Sequence of EGFR(T790M) (P00533 25-1210 T790M): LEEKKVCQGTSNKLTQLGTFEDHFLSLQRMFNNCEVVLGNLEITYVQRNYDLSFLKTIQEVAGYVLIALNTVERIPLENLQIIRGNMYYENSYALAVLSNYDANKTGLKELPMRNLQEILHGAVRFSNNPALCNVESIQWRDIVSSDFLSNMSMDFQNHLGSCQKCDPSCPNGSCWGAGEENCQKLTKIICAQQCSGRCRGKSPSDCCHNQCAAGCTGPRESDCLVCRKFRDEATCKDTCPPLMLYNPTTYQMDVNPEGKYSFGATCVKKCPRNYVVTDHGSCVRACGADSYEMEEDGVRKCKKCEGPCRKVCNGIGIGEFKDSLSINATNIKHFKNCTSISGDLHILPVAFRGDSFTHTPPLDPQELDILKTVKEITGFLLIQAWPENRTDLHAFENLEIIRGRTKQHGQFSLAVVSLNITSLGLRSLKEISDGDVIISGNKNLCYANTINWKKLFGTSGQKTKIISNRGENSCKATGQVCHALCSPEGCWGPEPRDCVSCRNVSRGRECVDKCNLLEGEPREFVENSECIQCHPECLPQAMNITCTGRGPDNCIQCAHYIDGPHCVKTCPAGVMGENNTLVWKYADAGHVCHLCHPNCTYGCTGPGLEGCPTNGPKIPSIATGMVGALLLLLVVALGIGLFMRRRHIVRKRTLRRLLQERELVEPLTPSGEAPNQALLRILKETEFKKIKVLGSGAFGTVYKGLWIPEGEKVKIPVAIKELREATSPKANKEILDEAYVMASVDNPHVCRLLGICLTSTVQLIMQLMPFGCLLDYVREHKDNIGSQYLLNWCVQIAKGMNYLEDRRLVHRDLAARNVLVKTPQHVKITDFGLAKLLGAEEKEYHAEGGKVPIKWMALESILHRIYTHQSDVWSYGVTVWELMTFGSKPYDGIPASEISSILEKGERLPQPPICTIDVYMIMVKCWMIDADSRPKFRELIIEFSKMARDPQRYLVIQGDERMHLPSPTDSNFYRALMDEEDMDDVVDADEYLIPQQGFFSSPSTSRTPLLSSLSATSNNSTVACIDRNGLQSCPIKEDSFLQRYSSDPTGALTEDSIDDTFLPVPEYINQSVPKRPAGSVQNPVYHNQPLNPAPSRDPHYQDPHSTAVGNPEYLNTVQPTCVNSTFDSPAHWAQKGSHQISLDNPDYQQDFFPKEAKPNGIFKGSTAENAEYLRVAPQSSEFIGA
Sequence of SRC (P12931 whole entry): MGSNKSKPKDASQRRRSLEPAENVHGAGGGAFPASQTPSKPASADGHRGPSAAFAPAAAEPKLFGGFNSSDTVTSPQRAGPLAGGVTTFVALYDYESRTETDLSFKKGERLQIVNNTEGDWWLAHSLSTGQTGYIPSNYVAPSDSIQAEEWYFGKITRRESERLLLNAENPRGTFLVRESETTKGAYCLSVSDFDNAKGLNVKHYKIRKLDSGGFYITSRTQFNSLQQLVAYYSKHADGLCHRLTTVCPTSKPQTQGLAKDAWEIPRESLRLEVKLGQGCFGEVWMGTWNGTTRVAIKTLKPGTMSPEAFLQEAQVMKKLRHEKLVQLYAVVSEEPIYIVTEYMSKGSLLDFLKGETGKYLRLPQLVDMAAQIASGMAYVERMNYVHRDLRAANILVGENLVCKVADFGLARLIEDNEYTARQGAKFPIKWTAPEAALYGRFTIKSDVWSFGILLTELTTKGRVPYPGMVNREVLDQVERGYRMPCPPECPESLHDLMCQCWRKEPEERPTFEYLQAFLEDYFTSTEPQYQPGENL

Consider `COc1cc2c(Nc3ccc(Br)cc3F)ncnc2cc1OCC1CCN(C)CC1` [Vandetanib, reference compound], for which the remaining activity at 10 µM at SRC came out at 0.7%.

With `Cc1ccc(NC(=O)c2ccc(CN3CCN(C)CC3)cc2)cc1Nc1nccc(-c2cccnc2)[n+]1[Pt-2]1([Cl])[NH2+]C2CCCCC2[NH2+]1` (centres unmarked) [1b, oxaliplatin-imatinib], the IC50 in the assay on K562 Ima1.0 worked out at 2920 ± 930 nM. Moreover, on EGFR(T790M), the Percent control is listed as 78%.

On to `C#Cc1cccc(Nc2ncnc3cc(OCCOC)c(OCCOC)cc23)c1` [Erlotinib], for which the remaining activity at 10 µM at ALK was found to be 10.7%; on FLT3(K663D), 11.5%; in [1], 0.7%; in assay [2], 9.9%; in [3] it was 5.8%; in [4], 2.2%. The remaining activity at 10 µM at FLT3(R834Q) was found to be 100%; in [5], 0.6%.

As for `C#Cc1cccc(Nc2c3cc(OCCOC)c(OCCOC)cc3nc[n+]2[Pt@SP2-2]([NH3+])([NH3+])[Cl])c1` [2a, cisplatin-erlotinib], the Percent control in assay [6] is given as 0.9%; in [7] it was 41%.

Consider `Cc1ccc(NC(=O)c2ccc(CN3CCN(C)CC3)cc2)cc1Nc1nccc(-c2cccnc2)n1` [Imatinib, reference compound], for which the remaining activity at 10 µM at EGFR(L858R) was determined as 100%.
